In article PMC4534002 (Journal of medicinal chemistry, 2013):

Assays:
CYP3A4 [1] = target: T1, CYP3A4 (Homo sapiens, UniProt P08684); test: Thermal denaturation of CYP3A4-inhibitor complex, WT; type: binding; conditions: WT CYP3A4 2 µM, 10 µM inhibitor; ligand-free 52.6 ± 0.1, with 2% DMSO 52.1 ± 0.1
CYP3A4 [2] = target: T1, CYP3A4; test: Redox potential measurement of inhibitor-bound CYP3A4; conditions: for Eo,7 (midpoint redox potential of the inhibitor-bound CYP3A4): ligand-free CYP3A4 ~−300 mV, benzyl viologen as redox dye; for negative shift (decrease) in heme redox potential Eo,7 caused by ligation: relative to ligand-free CYP3A4
CYP3A4 [3] = target: T1, CYP3A4; test: Dissociation during repetitive concentration/dilution cycles; type: binding
CYP3A4 S119A = CYP3A4 S119A (Homo sapiens, UniProt P08684, S119A); test: Thermal denaturation of CYP3A4 S119A-inhibitor complex; type: binding; conditions: for Tm: CYP3A4 S119A mutant, ligand-free 54.0 ± 0.1, with 2% DMSO 53.5 ± 0.1; for decrease in Tm of ligand-bound S119A CYP3A4 vs wild type: S119A vs WT
CYP3A4 [4] = target: T1, CYP3A4; test: BFC hydroxylase activity inhibition in reconstituted system with CPR; conditions: from IC50 values
CYP3A4 [5] = target: T1, CYP3A4; test: Spectral binding titration; conditions: WT CYP3A4, relative to ritonavir

| Tm (melting temperature of the CYP3A4-inhibitor complex) (CYP3A4 [1]) [°C] | Eo,7 (midpoint redox potential of the inhibitor-bound CYP3A4) (CYP3A4 [2]) | negative shift (decrease) in heme redox potential Eo,7 caused by ligation (CYP3A4 [2]) | reversibility of binding (dissociation from CYP3A4) (CYP3A4 [3]) | Tm (CYP3A4 S119A) [°C] | decrease in Tm of ligand-bound S119A CYP3A4 vs wild type (CYP3A4 S119A) | fold more effective inhibition of BFC hydroxylation than ritonavir (CYP3A4 [4]) | fold lower binding affinity for CYP3A4 than ritonavir (from Ks) (CYP3A4 [5]) [fold] | fold lower inactivating potency than ritonavir (CYP3A4 [4]) [fold] | SMILES |
| --- | --- | --- | --- | --- | --- | --- | --- | --- | --- |
| 57.2 ± 0.2 | −350 ± 5 mV | ~70 mV | irreversibly | 55.6 ± 0.2 | 1–1.6 °C | 2–4 fold |  |  | CC(C)c1nc(CN(C)C(=O)N[C@H](C(=O)N[C@H](CC[C@H](Cc2ccccc2)NC(=O)OCc2cccnc2)Cc2ccccc2)C(C)C)cs1 [compound 3] |
| 54.8 ± 0.1 | ≈ −370 mV | ~ 50 mV | dissociated | 53.2 ± 0.1 | 1–1.6 °C |  | 10 | 6 | CC(C)c1nc(CN(C)C(=O)N[C@H](C(=O)N[C@H](CC[C@H](Cc2ccccc2)NC(=O)OCc2cnco2)Cc2ccccc2)C(C)C)cs1 [compound 2] |
| 56.5 ± 0.2 | <<-370 mV | > 70 mV | dissociated | 55.5 ± 0.2 | 1–1.6 °C |  |  |  | CC(C)c1nc(CN(C)C(=O)N[C@H](C(=O)N[C@H](CC[C@H](Cc2ccccc2)NC(=O)OCc2cnc[nH]2)Cc2ccccc2)C(C)C)cs1 [compound 1] |
